Patent publication US10308631B2, “Selective anti-cancer compounds” (NATIONAL UNIVERSITY OF SINGAPORE, priority 2015, dated 2019)

Legend:
[1] = tested on: cancer cell lines (panel of thirty); assay: MTT growth inhibition, mean over cancer cell line panel; type: cell-based; details: Homo sapiens, 72 h
Experimental: FIG. 7 is a graphical representation showing that Compound 1 (a131) induces selective cell growth inhibitory effects in a broad spectrum of human cancer cells. A panel of cancer and normal cell lines were treated with Compound 1 (a131) for 72 h and a mean G150 value (the concentration required to achieve 50% growth inhibition) was determined. A Student's t-test indicated a statistically significant difference at p<0.05 (p=0.017) between normal cells and cancer cells treated with Compound 1 (a131). […]
The MTT assay was performed by adding thiazolyl blue tetrazolium bromide (MTT reagent, Invitrogen) at a concentration of 0.5 mg/mL to each cell culture and the resulting mixture incubated for 4 h at 37° C. […] The absorbance of each well at 540 nm and 660 nm was measured using a microplate reader (Benchmark plus, BIO-RAD). The optical density (OD) values were calculated by subtracting the absorbance at 660 nm from the absorbance at 540 nm. […]

DLD1 = assay: MTT growth inhibition (GI50); type: cell-based; details: Homo sapiens, DLD-1, DLD1, colon cancer, 72 h
Experimental: (§1) Having shown that Compound 1 and its derivatives are effective against HeLa cervical cancer cells and human fibroblast BJ cell lines, Compound 1 was then tested against a panel of thirty different human cancer cells lines derived from gastric, colon, liver, breast, lung and cervical tumours and five different human normal cell lines, which were normal fibroblast cell lines (BJ normal, IMR90, WI38) and retinal pigmented epithelium cell lines (ARPE-19, hTert-immortalized RPE-1).
(§2) The cell lines detailed in Table 2, below, were cultured in the media shown and treated with Compound 1 at a range of different concentrations (from 0.1 μM to 10 μM) for 72 h in triplicate and a mean concentration value for Compound 1 to achieve 50% growth inhibition (GI50) in each cell line was determined by use of the MTT assay.
(§3) The MTT assay was performed by adding thiazolyl blue tetrazolium bromide (MTT reagent, Invitrogen) at a concentration of 0.5 mg/mL to each cell culture and the resulting mixture incubated for 4 h at 37° C. The medium was then removed, and the blue dye remaining in each well was dissolved in DMSO by mixing with a microplate mixer. The absorbance of each well at 540 nm and 660 nm was measured using a microplate reader (Benchmark plus, BIO-RAD). The optical density (OD) values were calculated by subtracting the absorbance at 660 nm from the absorbance at 540 nm. Mean OD values from control cells containing only DMSO treated wells were set as 100%. The resulting GI50 values (in μM) are set out in Table 2 below.

A549 = assay: MTT growth inhibition (GI50); type: cell-based; details: Homo sapiens, A549, cancer (others), 72 h
Experimental: as §1, §2, §3

Hep3 = assay: MTT growth inhibition (GI50); type: cell-based; details: Homo sapiens, Hep3, liver cancer, 72 h
Experimental: as §1, §2, §3

HT29 = assay: MTT growth inhibition (GI50); type: cell-based; details: Homo sapiens, HT-29, HT29, colon cancer, 72 h
Experimental: as §1, §2, §3

NUGC4 = assay: MTT growth inhibition (GI50); type: cell-based; details: Homo sapiens, NUGC-4, NUGC4, gastric cancer, 72 h
Experimental: as §1, §2, §3

SNU216 = assay: MTT growth inhibition (GI50); type: cell-based; details: Homo sapiens, SNU-216, SNU216, gastric cancer, 72 h
Experimental: as §1, §2, §3

SNU620 = assay: MTT growth inhibition (GI50); type: cell-based; details: Homo sapiens, SNU620, gastric cancer, 72 h
Experimental: as §1, §2, §3

IM95 = assay: MTT growth inhibition (GI50); type: cell-based; details: Homo sapiens, IM95, gastric cancer, 72 h
Experimental: as §1, §2, §3

SNU1750 = assay: MTT growth inhibition (GI50); type: cell-based; details: Homo sapiens, SNU1750, gastric cancer, 72 h
Experimental: as §1, §2, §3

HCT15 = assay: MTT growth inhibition (GI50); type: cell-based; details: Homo sapiens, HCT-15, HCT15, colon cancer, 72 h
Experimental: as §1, §2, §3

MKN45 = assay: MTT growth inhibition (GI50); type: cell-based; details: Homo sapiens, MKN-45, MKN45, gastric cancer, 72 h
Experimental: as §1, §2, §3

IST1 = assay: MTT growth inhibition (GI50); type: cell-based; details: Homo sapiens, IST1, gastric cancer, 72 h
Experimental: as §1, §2, §3

NCC19 = assay: MTT growth inhibition (GI50); type: cell-based; details: Homo sapiens, NCC19, gastric cancer, 72 h
Experimental: as §1, §2, §3

BJ Normal = assay: MTT growth inhibition (GI50); type: cell-based; details: Homo sapiens, normal cell line, 72 h
Experimental: as §1, §2, §3

SNU-16 = assay: MTT growth inhibition (GI50); type: cell-based; details: Homo sapiens, SNU-16, gastric cancer, 72 h
Experimental: as §1, §2, §3

SNU1 = assay: MTT growth inhibition (GI50); type: cell-based; details: Homo sapiens, SNU1, gastric cancer, 72 h
Experimental: as §1, §2, §3

MDA-MB-231 = assay: MTT growth inhibition (GI50); type: cell-based; details: Homo sapiens, MDA-MB-231, breast cancer, 72 h
Experimental: as §1, §2, §3

ARPE-19 = assay: MTT growth inhibition (GI50); type: cell-based; details: Homo sapiens, ARPE-19, normal cell line, 72 h
Experimental: as §1, §2, §3

NUGC3 = assay: MTT growth inhibition (GI50); type: cell-based; details: Homo sapiens, NUGC-3, NUGC3, gastric cancer, 72 h
Experimental: as §1, §2, §3

AGS = assay: MTT growth inhibition (GI50); type: cell-based; details: Homo sapiens, gastric cancer, 72 h
Experimental: as §1, §2, §3

SNU449 = assay: MTT growth inhibition (GI50); type: cell-based; details: Homo sapiens, SNU-449, SNU449, liver cancer, 72 h
Experimental: as §1, §2, §3

HeLa cells = assay: Soft agar colony formation assay (anchorage-independent growth); type: cell-based, human; details: sub-micromolar concentrations, seven days
Experimental: FIG. 8 is a histogram showing that Compound 1 (a131) potently suppresses anchorage-independent growth of cancer cells. HeLa cells were suspended in 2 mL of soft agar at the final concentration of 0.4%, and were then placed on the top of 2 mL layer of 1% agar in 6-well plates, in triplicate. Subsequently, Compound 1 (a131) was added to the plates at concentrations of 0, 0.15, 0.3, 0.6, 1.25. 2.5 and 5 μM. Seven (7) days after the addition of Compound 1 (a131) to soft agar cultures, the number of colonies per plate were counted in an unbiased manner using automated MATLAB software. The average number of colonies from triplicates was plotted with standard deviations.
Soft agar colony formation assays are known to better mimic the features of in vivo tumours growing in three dimensions than cancer cell lines growing in an in vitro tissue culture. Therefore, the anti-proliferative effects of Compound 1 on cancer cells growing anchorage-independently in soft agar were studied too.
HeLa cells as cultured in Biology Example 1 (1×10^4 cells/well) were suspended in 2 mL of soft agar at a final concentration of 0.4%. […] Seven days after the addition of Compound 1, the number of colonies per plate was counted in an unbiased manner using MATLAB software.

Question: What does the source list for `N#C/C(=C\c1cccc2cnccc12)c1c[nH]c2ccccc12` [Compound 1, (Z)-2-(1H-indol-3-yl)-3-(isoquinolin-5-yl)acrylonitrile]?
Answer: GI50 [1]: 1.7 µM; GI50 (DLD1): 1.2 µM; GI50 (A549): 2 µM; GI50 (Hep3): 3.7 µM; GI50 (HT29): 0.9 µM; GI50 (NUGC4): > 10 µM; GI50 (SNU216): 1.9 µM; GI50 (SNU620): 1 µM; GI50 (IM95): 1 µM; GI50 (SNU1750): 0.7 µM; GI50 (HCT15): 0.5 µM; GI50 (MKN45): 1 µM; GI50 (IST1): 2.2 µM; GI50 (NCC19): 4.6 µM; GI50 (BJ Normal): 8.1 µM; GI50 (SNU-16): 1 µM; GI50 (SNU1): 0.9 µM; GI50 (MDA-MB-231): 1.1 µM; GI50 (ARPE-19): > 10 µM; GI50 (NUGC3): 1 µM; GI50 (AGS): 1.1 µM; GI50 (SNU449): 2.3 µM; reduction of HeLa cell colonies grown in soft agar (HeLa cells): greater than 50%
